What was measured:
H+/K+-ATPase = target: T1, H+/K+-ATPase (Sus scrofa, UniProt P19156); assay: Inhibition of proton pump (H+/K+-ATPase) activity in hog gastric vesicles; type: biochemical; conditions: K+ specific H+/K+-ATPase activity, pH 7.4, 37° C. for 40 minutes, malachite green
T1 construct: reaction buffer solution (60 mmol/l Tris-HCl buffer solution, pH 7.4) containing hog gastric vesicle; from tissue; host or cells: hog stomach (gastric vesicles, by centrifugation after Rabon et al. 1988)
How it was run: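 Hog gastric vesicles in 60 mmol/l Tris-HCl pH 7.4 with compound, started with ATP, 40 min at 37° C. Pi read by malachite green at 570 nm; K+-specific activity taken as difference between +K+ and −K+ activity. IC50 from % inhibition by 4-parameter logistic fit.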

[1] = test system: basal gastric acid secretion in pylorus-ligated rat; assay: Inhibition of basal gastric acid secretion in pylorus-ligated rat (Shay's rat model); type: in vivo; conditions: total acid output, male SD rats, 3 mg/kg into the caudal vein, 5 hours after pylorus ligation
Experimental: 3) Effect of Inhibiting Basal Gastric Acid Secretion in Pylorus-Ligated Rat
The measurement of effect of inhibiting basal gastric acid secretion by the compound of the present invention was conducted according to shay's rat model (Shay, H., et al., 1945, gastroenterology, 5, p 43-61). Male Sprague Dawley (SD) rats (body weight 180-220 g) were divided into X groups (n=5), and fasted while feeding only water for 18 hours. Under isoflurane anesthesia, incision of abdominal cavity of rat was made to ligate pylorus, and, immediately after the ligation, to the control groups, only an aqueous solution of 10% ethanol, 20% polyethyleneglycol (PEG) 400 and 10% Cremophor was administered into the caudal vein, and to the other groups, a test compound suspended in an aqueous solution of 10% ethanol, 20% polyethyleneglycol 400, 10% Cremophor was administered into the caudal vein at a dose of 3 mg/kg/2 ml. […] The amount and the pH of the obtained gastric juice were measured, the acidity of gastric juice was measured with 0.1 N-NaOH volume (ueq/ml) required for automatic titration of gastric juice to pH 7.0, and total acid output was calculated by multiplying the acidity of gastric juice and the amount of gastric juice. % Inhibition activity of test compound=(total acid secretion of control group−total acid secretion of the group treated with test compound)/total acid secretion of control group×100

T1 sequence (P19156 2-1034 limits assumed): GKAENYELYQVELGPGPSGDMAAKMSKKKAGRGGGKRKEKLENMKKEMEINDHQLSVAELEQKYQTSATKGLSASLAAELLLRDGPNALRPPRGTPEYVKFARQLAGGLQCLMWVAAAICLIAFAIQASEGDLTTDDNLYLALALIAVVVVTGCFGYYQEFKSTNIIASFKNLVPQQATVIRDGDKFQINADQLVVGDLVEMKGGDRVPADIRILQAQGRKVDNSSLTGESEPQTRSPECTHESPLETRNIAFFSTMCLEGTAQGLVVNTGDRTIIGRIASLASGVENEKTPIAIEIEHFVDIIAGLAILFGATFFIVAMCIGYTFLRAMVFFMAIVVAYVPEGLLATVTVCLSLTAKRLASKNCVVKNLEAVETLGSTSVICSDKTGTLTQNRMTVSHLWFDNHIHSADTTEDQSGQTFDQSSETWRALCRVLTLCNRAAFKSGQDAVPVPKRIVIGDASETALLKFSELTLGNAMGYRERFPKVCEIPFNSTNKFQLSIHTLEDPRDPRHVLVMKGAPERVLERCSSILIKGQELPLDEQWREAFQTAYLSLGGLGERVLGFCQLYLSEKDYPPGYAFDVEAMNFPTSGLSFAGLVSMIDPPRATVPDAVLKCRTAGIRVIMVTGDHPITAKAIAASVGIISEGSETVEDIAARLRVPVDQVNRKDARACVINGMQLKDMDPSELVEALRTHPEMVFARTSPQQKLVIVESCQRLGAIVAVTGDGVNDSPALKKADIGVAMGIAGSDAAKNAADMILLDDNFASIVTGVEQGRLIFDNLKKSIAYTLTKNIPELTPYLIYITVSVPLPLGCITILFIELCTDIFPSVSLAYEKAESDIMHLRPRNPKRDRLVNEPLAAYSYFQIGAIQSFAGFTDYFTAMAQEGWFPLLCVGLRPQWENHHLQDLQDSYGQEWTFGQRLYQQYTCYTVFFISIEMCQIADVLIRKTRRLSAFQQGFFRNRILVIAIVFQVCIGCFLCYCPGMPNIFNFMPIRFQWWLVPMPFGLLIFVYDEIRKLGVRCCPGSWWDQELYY
T1 sequence (P18434 whole entry partner): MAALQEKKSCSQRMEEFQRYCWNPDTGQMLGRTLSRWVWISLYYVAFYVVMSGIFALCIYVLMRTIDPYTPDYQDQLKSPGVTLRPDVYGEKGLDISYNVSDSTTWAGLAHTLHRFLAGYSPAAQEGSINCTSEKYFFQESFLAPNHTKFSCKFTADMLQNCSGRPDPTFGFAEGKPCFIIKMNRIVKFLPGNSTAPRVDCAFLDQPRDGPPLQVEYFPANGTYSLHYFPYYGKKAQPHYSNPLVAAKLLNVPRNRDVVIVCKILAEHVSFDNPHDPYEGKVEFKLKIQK

SMILES	IC50 (H+/K+-ATPase)	% inhibition activity [1]
CNC1CCc2c1cn(S(=O)(=O)c1cccc(F)c1)c2-c1ccc(F)cc1F (stereo not shown) [Example 113, 1-(2,4-difluorophenyl)-2-((3-fluorophenyl)sulfonyl)-N-methyl-2,4,5,6-tetrahydrocyclopenta[c]pyrrol-4-amine]	310 nM	52%
CNC1CCc2c1cn(S(=O)(=O)c1cccc(Cl)c1)c2-c1ccccc1F (stereo not shown) [Example 1]	340 nM	92%

From patent US10039747B2, “Tetrahydrocyclopentapyrrole derivatives and a method for preparing the same” (Daewoong Pharmaceutical Co., Ltd., priority 2013, dated 2018)
